Results: patent US12091425B2 (AMGEN INC., priority 2016, dated 2024)

How the values were obtained:
[1] = biological target: T1, Mcl-1/Bim interaction, recombinant human Mcl-1 (171-327) (Homo sapiens, UniProt Q07820); experiment: Cell free Mcl-1: Bim Affinity Assay (Mcl-1 HTRF); assay type: binding
T1 construct: made in house
Outline: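 Displacement of biotinylated Bim 51-76 peptide is followed by TR-FRET. Incubation runs overnight. Duplicate points are fitted with a four-parameter sigmoid to yield IC50.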

[2] = system: OPM-2 human multiple myeloma cell line; experiment: Cell Viability Assay (OPM-2 10 FBS); assay type: cell-based; conditions: OPM-2 cells, CellTiter-Glo
Outline: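 Plated at 3000 cells/well in 10% FBS complete medium, the cells received a serial compound dilution series and incubated 16 h at 37 °C with 5% CO2. CellTiter-Glo was then added; IC50 values were fitted with a logistic 4-parameter model.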

[3] = TR-FRET, 0.1 nM Mcl-1 (171-327), 0.05 nM biotin-Bim (51-76)
[4] = Homo sapiens, OPM-2, 16 h, 16 h
[5] = cell free Mcl-1:Bim TR-FRET, recombinant human Mcl-1 (171-327)
[6] = Homo sapiens, OPM-2, 16 h, 16 h incubation

T1 sequence (Q07820 171-327): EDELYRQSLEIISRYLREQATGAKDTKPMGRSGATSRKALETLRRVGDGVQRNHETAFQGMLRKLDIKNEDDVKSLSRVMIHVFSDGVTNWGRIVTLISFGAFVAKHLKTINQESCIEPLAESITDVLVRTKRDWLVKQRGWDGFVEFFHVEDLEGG

Row | IC50 [1, 3] [nM] | IC50 [2, 4] [nM] | Compound | IC50 ([2]; 16 h) [nM] | also measured
1 | 2.97 | 630 | C[C@@H]1[C@@H](C)C/C=C/[C@H](OCCN2CCC(F)(F)CC2)[C@@H]2CC[C@H]2CN2C[C@@]3(CCCc4cc(Cl)ccc43)COc3ccc(cc32)C(=O)NS1(=O)=O [Example 10, (1S,3′R,6′R,7′S,8′E,11′S,12′R)-6-chloro-7′-(2-(4,4-difluoro-1-piperidinyl)ethoxy)-11′,12′-dimethyl-3,4-dihydro-2H,15′H-spiro[naphthalene-1,22′-[20]oxa[13]thia[1,14]diazatetracyclo[14.7.2.0^3,6.0^19,24]pentacosa[8,16,18,24]tetraen]-15′-one-13,13′-dioxide] |  | 
2 | 0.8 | 1700 | C[C@H]1C/C=C/[C@H](O)[C@@H]2CC[C@H]2CN2C[C@@]3(CCCc4cc(Cl)ccc43)COc3ccc(cc32)C(=O)NS(=O)(=O)N1CC1CC1 [Example 28, (1S,3′R,6′R,7′S,8′E,11′S)-6-chloro-12′-(cyclopropylmethyl)-7′-hydroxy-11′-methyl-3,4-dihydro-2H,15′H-spiro[naphthalene-1,22′-[20]oxa[13]thia[1,12,14]triazatetracyclo[14.7.2.0^3,6.0^19,24]pentacosa[8,16,18,24]tetraen]-15′-one 13,13′-dioxide] |  | 
3 | 23.5 |  | C[C@@H]1/C=C/[C@H](O)[C@@H]2CC[C@H]2CN2C[C@@]3(CCCc4cc(Cl)ccc43)COc3ccc(cc32)C(=O)NS(=O)(=O)[C@@H](C)C1 (single isomer, unassigned) [Example 1022] |  | IC50 ([2]; 16 h incubation): 22700 nM
4 |  |  | COC(=O)C[C@@H]1CC/C=C/[C@H](OC)[C@@H]2CC[C@H]2CN2C[C@@]3(CCCc4cc(Cl)ccc43)COc3ccc(cc32)C(=O)NS1(=O)=O [Example 624] | 455 | IC50 [1, 5]: 0.338 nM
5 | 1.45 | 587 | CO[C@H]1C[C@@H](N2[C@@H](C)C/C=C\[C@H](O)[C@@H]3CC[C@H]3CN3C[C@@]4(CCCc5cc(Cl)ccc54)COc4ccc(cc43)C(=O)NS2(=O)=O)C1 [Example 78, (1S,3′R,6′R,7′S,8′Z,11′S)-6-chloro-7′-hydroxy-12′-(cis-3-methoxycyclobutyl)-11′-methyl-3,4-dihydro-2H,15′H-spiro[naphthalene-1,22′-[20]oxa[13]thia[1,12,14]triazatetracyclo[14.7.2.0^3,6.0^19,24]pentacosa[8,16,18,24]tetraen]-15′-one 13′,13′-dioxide] |  | 
6 | 2.58 | 13000 | O=C1NS(=O)(=O)[C@H]2C[C@@H](CC[C@H](O)[C@@H]3CC[C@H]3CN3C[C@@]4(CCCc5cc(Cl)ccc54)COc4ccc1cc43)C2 [Example 101, (1S,3′R,6′R,7′S,10′S,12′S)-6-chloro-7′-hydroxy-3,4-dihydro-2H,15′H-spiro[naphthalene-1,22′-[20]oxa[13]thia[1,14]diazapentacyclo[14.7.2.1^10,120^3,6.0^19,24]hexacosa[16,18,24]trien]-15′-one 13′,13′-dioxide] |  | 
7 | 3.83 | 1050 | C[C@@H]1[C@@H](C)C/C=C/C(=O)[C@@H]2CC[C@H]2CN2C[C@@]3(CCCc4cc(Cl)ccc43)COc3ccc(cc32)C(=O)NS1(=O)=O [Example 349, (1S,3′R,6′R,8′E,11′S,12′R)-6-chloro-11′,12′-dimethyl-3,4-dihydro-2H,7′H,15′H-spiro[naphthalene-1,22′-[20]oxa[13]thia[1,14]diazatetracyclo[14.7.2.0^3,6.0^19,24]pentacosa [8,16,18,24]tetraene]-7′,15′-dione 13′,13′-dioxide] |  | 
8 | 0.144 | 208 | C[C@@H]1CC/C=C/[C@H](OCc2ncn(C)n2)[C@@H]2CC[C@H]2CN2C[C@@]3(CCCc4cc(Cl)ccc43)COc3ccc(cc32)C(=O)NS1(=O)=O [Example 410, (1S,3′R,6′R,7′S,8′E,12′R)-6-chloro-12′-methyl-7′-((l-methyl-1H-1,2,4-triazol-3-yl)methoxy)-3,4-dihydro-2H,15′H-spiro[naphthalene-1,22′-[20]oxa[13]thia[1,14]diazatetracyclo[14.7.2.0^3,6.0^19,24]pentacosa [8,16,18,24]tetraen]-15′-one 13′,13′-dioxide] |  | 
9 | 0.872 |  | CC[C@@H]1CC/C=C/[C@H](OCC(=O)NCCN(C)C)[C@@H]2CC[C@H]2CN2C[C@@]3(CCCc4cc(Cl)ccc43)COc3ccc(cc32)C(=O)NS1(=O)=O [Example 995, 2-(((1S,3′R,6′R,7′S,8′E,12′R)-6-chloro-12′-ethyl-13′,13′-dioxido-15′-oxo-3,4-dihydro-2H-spiro[naphthalene-1,22′-[20]oxa[13]thia[1,14]diazatetracyclo[14.7.2.0^3,6.0^19,24]pentacosa [8,16,18,24]tetraen]-7′-yl)oxy)-N-(2-(dimethylamino)ethyl)acetamide] |  | IC50 [2, 6]: 1680 nM
10 | 0.211 | 128 | COCCOCCOCCOCCO[C@H]1/C=C/C[C@H](C)[C@@H](C)S(=O)(=O)NC(=O)c2ccc3c(c2)N(C[C@@H]2CC[C@H]21)C[C@@]1(CCCc2cc(Cl)ccc21)CO3 [Example 379, (1S,3′R,6′R,7′S,8′E,11′S,12′R)-6-chloro-11′,12′-dimethyl-7′-(3,6,9,12-tetraoxatridec-1-yloxy)-3,4-dihydro-2H,15′H-spiro[naphthalene-1,22′-[20]oxa[13]thia[1,14]diazatetracyclo[14.7.2.0^3,6.0^19,24]pentacosa[8,16,18,24]tetraen]-15′-one 13′,13′-dioxide] |  | 
11 | 0.617 |  | CNC(=O)C[C@@H]1/C=C/[C@@H]2CC[C@H]2CN2C[C@@]3(CCCc4cc(Cl)ccc43)COc3ccc(cc32)C(=O)NS(=O)(=O)[C@H](C)[C@@H](C)C1 [Example 1073, 2-((1S,3′R,6′S,7′E,9′R,11′S,12′R)-6-chloro-11′,12′-dimethyl-13′,13′-dioxido-15′-oxo-3,4-dihydro-2H-spiro[naphthalene-1,22′-[20]oxa[13]thia[1,14]diazatetracyclo[14.7.2.0^3,6.0^19,24]pentacosa [7,16,18,24]tetraen]-9′-yl)-N-methylacetamide] |  | IC50 [2, 6]: 1120 nM
12 | 0.421 |  | O=C1NS(=O)(=O)C[C@@H](CO)C/C=C/[C@H](O)[C@@H]2CC[C@H]2CN2C[C@@]3(CCCc4cc(Cl)ccc43)COc3ccc1cc32 [Example 1086, (1S,3′R,6′R,7′S,8′E,11′R)-6-chloro-7′-hydroxy-11′-(hydroxymethyl)-3,4-dihydro-2H,15′H-spiro [naphthalene-1,22′-[20]oxa[13]thia[1,14]diazatetracyclo[14.7.2.0^3,6.0^19,24]pentacosa [8,16,18,24]tetraen]-15′-one 13′,13′-dioxide] |  | IC50 [2, 6]: 8650 nM
13 |  |  | COC[C@H](O)C[C@@H]1CC/C=C/[C@H](OC)[C@@H]2CC[C@H]2CN2C[C@@]3(CCCc4cc(Cl)ccc43)COc3ccc(cc32)C(=O)NS1(=O)=O (single isomer, unassigned) [Example 652] | 4460 | IC50 [1, 5]: 2.4 nM
14 | 1.62 | 1720 | CO[C@@H]1/C=C/CCCCS(=O)(=O)NC(=O)c2ccc3c(c2)N(C[C@@H]2CC[C@H]21)C[C@@]1(CCCc2cc(Cl)ccc21)CO3 [Example 229, (1S,3′R,6′R,7′R,8′E)-6-chloro-7′-methoxy-3,4-dihydro-2H,16′H-spiro[naphthalene-1,23′-[21]oxa[14]thia[1,15]diazatetracyclo[15.7.2.0^3,6.0^20,25]hexacosa[8,17,19,25]tetraen]-16′-one 14′,14′-dioxide] |  | 
15 |  |  | C[C@H]1C/C=C/[C@H](O)[C@@H]2CC[C@H]2CN2C[C@@]3(CCCc4cc(Cl)ccc43)COc3ccc(cc32)C(=O)NS(=O)(=O)N1Cc1ccccn1 (single isomer, unassigned) [Example 667] | 378 | IC50 [1, 5]: 0.244 nM
16 | 0.614 | 2570 | CS(=O)(=O)CCN1CC/C=C\[C@H](O)[C@@H]2CC[C@H]2CN2C[C@@]3(CCCc4cc(Cl)ccc43)COc3ccc(cc32)C(=O)NS1(=O)=O [Example 37, (1S,3′R,6′R,7′S,8′Z)-6-chloro-7′-hydroxy-12′-(2-(methylsulfonyl)ethyl)-3,4-dihydro-2H,15′H-spiro[naphthalene-1,22′-[20]oxa[13]thia[1,12,14]triazatetracyclo[14.7.2.0^3,6.0^19,24]pentacosa[8,16,18,24]tetraen]-15′-one 13′,13′-dioxide] |  | 
17 | 0.442 |  | C[C@@H]1CC/C=C/[C@H](OCc2nnn(C)n2)[C@@H]2CC[C@H]2CN2C[C@@]3(CCCc4cc(Cl)ccc43)COc3ccc(cc32)C(=O)NS1(=O)=O [Example 957, (1S,3′R,6′R,7′S,8′E,12′R)-6-chloro-12′-methyl-7′-((2-methyl-2H-tetrazol-5-yl)methoxy)-3,4-dihydro-2H,15′H-spiro[naphthalene-1,22′-[20]oxa[13]thia[1,14]diazatetracyclo[14.7.2.0^3,6.0^19,24]pentacosa [8,16,18,24]tetraen]-15′-one 13′,13′-dioxide] |  | IC50 [2, 6]: 308 nM

Row | Compound | IC50 [1, 3] [nM] | IC50 [2, 4] [nM] | IC50 ([2]; 16 h) [nM] | also measured
18 | COCCOCC[C@@H]1[C@@H](C)C/C=C/[C@H](O)[C@@H]2CC[C@H]2CN2C[C@@]3(CCCc4cc(Cl)ccc43)COc3ccc(cc32)C(=O)NS1(=O)=O (single isomer, unassigned) [Example 402] | 18.6 |  | 13600 | 
19 | COCCO[C@H]1/C=C/C[C@H](C)[C@@H](CCOC)S(=O)(=O)NC(=O)c2ccc3c(c2)N(C[C@@H]2CC[C@H]21)C[C@@]1(CCCc2cc(Cl)ccc21)CO3 (single isomer, unassigned) [Example 397] | 0.228 |  | 143 | 
20 | O=C1NS(=O)(=O)[C@@H]2C[C@H](O)C[C@H]2C/C=C/[C@H](O)[C@@H]2CC[C@H]2CN2C[C@@]3(CCCc4cc(Cl)ccc43)COc3ccc1cc32 (single isomer, unassigned) [Example 335] | 0.263 |  | 2120 | 
